Measured values reported in patent publication US20120214862A1, “MODULATION OF FACTOR 7 EXPRESSION” (ISIS Pharmaceuticals, Inc., priority 2009, published 2012).
In the oligonucleotide strings, read from the 5' end, every base follows the letter of its sugar. An asterisk marks phosphorothioate; unmarked linkages are phosphodiester. Other units and linkages are bracketed, terminal groups are in braces. A string of capitals states the bases alone. e = 2'-O-(2-methoxyethyl) (MOE); [5mC] = 5-methylcytosine; d = 2'-deoxy (DNA)

Tested on: human Factor 7 mRNA
Assay: Antisense inhibition of human Factor 7 mRNA in HepB3 cells, lipofectin, 50 nM, real-time RT-PCR
Assay type: cell-based
Conditions: for % Inhibition (human Factor 7 mRNA): 50 nM, ~24 h
Procedure, shortened: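 After transfection of wells containing 4,000 cells, treatment ran for approximately 24 h. RIBOGREEN®-measured total RNA served for normalisation, and inhibition was calculated as a percentage of untreated control.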

[1] = HepB3 cells, lipofectin, 50 nM antisense oligonucleotide, approximately 24 hours, primer probe set RTS 2927, relative to untreated control
[2] = Example 1, HepB3 cells, lipofectin, relative to untreated control cells
[3] = HepB3 cells, gapmers targeted to nucleobases 11830 to 11869 of SEQ ID NO: 1 (Table 9)
[4] = HepB3 cells, gapmers (5-10-5, 3-14-3, 2-13-5 MOE) targeted to nucleobases 4868 to 4899 of SEQ ID NO: 1
[5] = Example 4, HepB3 cells, lipofectin, relative to untreated control

416423 (antisense eG*eT*eG*eT*eT*dT*d[5mC]*dT*d[5mC]*d[5mC]*dT*d[5mC]*d[5mC]*dT*dG*eA*eG*eG*e[5mC]*e[5mC]) [compound 416423]
% Inhibition of human Factor 7 mRNA levels [1]: 51%

416473 (antisense e[5mC]*e[5mC]*e[5mC]*eT*eG*d[5mC]*d[5mC]*d[5mC]*d[5mC]*dT*d[5mC]*dT*dG*dT*d[5mC]*e[5mC]*eA*eG*e[5mC]*eG) [compound 416473]
% Inhibition of human Factor 7 mRNA levels [1]: 61%

407933 (antisense eT*eG*eA*eT*eA*dA*dT*dG*dG*dA*dT*dA*dA*dG*dA*eA*e[5mC]*e[5mC]*eA*eG) [compound 407933]
% Inhibition (human Factor 7 mRNA) [2]: 58%

416461 (antisense eG*eA*eA*eG*e[5mC]*dG*d[5mC]*dA*d[5mC]*dG*dA*dA*dG*dG*d[5mC]*e[5mC]*eA*eG*e[5mC]*eG) [compound 416461]
% Inhibition of human Factor 7 mRNA levels [1]: 43%

407919 (antisense eT*e[5mC]*eG*eA*eT*dG*dT*dA*d[5mC]*dT*dG*dG*dG*dA*dG*eA*e[5mC]*e[5mC]*e[5mC]*eT) [compound 407919]
% Inhibition (human Factor 7 mRNA) [2]: 84%

422165 (antisense eG*eG*eA*dG*dA*d[5mC]*dA*dA*dT*dG*dG*dT*d[5mC]*dA*dG*dG*dG*e[5mC]*eT*eG) [compound 422165]
% Inhibition of human Factor 7 mRNA levels [3]: 57%

416459 (antisense eT*eG*eG*eT*e[5mC]*dA*dG*dT*dG*dA*dG*dG*dA*d[5mC]*d[5mC]*eA*e[5mC]*eG*eG*eG) [compound 416459]
% Inhibition of human Factor 7 mRNA levels [1]: 23%

407669 (antisense eT*eA*eG*eA*e[5mC]*d[5mC]*d[5mC]*dT*d[5mC]*dA*dG*dT*dG*dA*dG*eT*eG*eT*e[5mC]*eG) [compound 407669]
% Inhibition (human Factor 7 mRNA) [2]: 57%

416525 (antisense eT*eA*eT*eG*eA*dG*dT*d[5mC]*d[5mC]*dT*dT*d[5mC]*dT*dA*dG*eT*eG*eA*eA*eT) [compound 416525]
% Inhibition of human Factor 7 mRNA levels [1]: 5%

422227 (antisense eG*e[5mC]*dA*dT*dG*dG*dT*dG*dA*dT*dG*d[5mC]*dT*dT*d[5mC]*eT*eG*eA*eA*eT) [compound 422227]
% Inhibition of human Factor 7 mRNA levels (HepB3 cells, gapmers targeted to nucleobases 15188 to 15211 of SEQ ID NO: 1 (Table 13)): 67%

407903 (antisense e[5mC]*e[5mC]*eG*e[5mC]*eG*dG*dA*dG*dA*d[5mC]*d[5mC]*dA*d[5mC]*d[5mC]*d[5mC]*eA*eG*eA*eT*eG) [compound 407903]
% Inhibition (human Factor 7 mRNA) [2]: 98%

422234 (antisense eT*eG*dG*dT*d[5mC]*dA*dG*dG*dG*d[5mC]*dT*dG*dG*dT*dT*eT*eT*eG*eG*eA) [compound 422234]
% Inhibition of human Factor 7 mRNA levels [3]: 62%

422297 (antisense e[5mC]*e[5mC]*d[5mC]*dG*dA*dG*dT*dT*d[5mC]*dT*dG*d[5mC]*dA*dG*dG*eA*eG*e[5mC]*eG*eG) [compound 422297]
% Inhibition of human Factor 7 mRNA levels [4]: 63%

407596 (antisense eG*eA*eG*eG*e[5mC]*d[5mC]*d[5mC]*d[5mC]*dG*dG*d[5mC]*dT*dT*d[5mC]*d[5mC]*eA*e[5mC]*eG*eG*e[5mC]) [compound 407596]
% Inhibition (human Factor 7 mRNA) [2]: 61%

407940 (antisense eT*eG*eT*eG*eA*dA*dG*d[5mC]*dT*dG*dG*dG*dA*dA*dG*e[5mC]*eA*eG*eG*eT) [compound 407940]
% Inhibition (human Factor 7 mRNA) [2]: 62%

407902 (antisense e[5mC]*eA*e[5mC]*e[5mC]*e[5mC]*dA*dG*dA*dT*dG*dG*dT*dG*dT*dT*eG*eA*eT*e[5mC]*eA) [compound 407902]
% Inhibition (human Factor 7 mRNA) [2]: 86%

422162 (antisense eG*eA*e[5mC]*dA*dA*dT*dG*dG*dT*d[5mC]*dA*dG*dG*dG*d[5mC]*dT*dG*eG*eT*eT) [compound 422162]
% Inhibition of human Factor 7 mRNA levels [3]: 59%

422139 (antisense eT*eT*e[5mC]*eT*eG*d[5mC]*dA*dG*dG*dA*dG*d[5mC]*dG*dG*d[5mC]*e[5mC]*eT*eA*eA*eA) [compound 422139]
% Inhibition of human Factor 7 mRNA levels [4]: 66%

422241 (antisense eG*eA*dG*dA*d[5mC]*dA*dA*dT*dG*dG*dT*d[5mC]*dA*dG*dG*eG*e[5mC]*eT*eG*eG) [compound 422241]
% Inhibition of human Factor 7 mRNA levels [3]: 61%

422244 (antisense eG*eA*dG*dG*dA*dG*dA*d[5mC]*dA*dA*dT*dG*dG*dT*d[5mC]*eA*eG*eG*eG*e[5mC]) [compound 422244]
% Inhibition of human Factor 7 mRNA levels [3]: 55%

407651 (antisense eA*eG*e[5mC]*e[5mC]*eT*d[5mC]*dA*dA*dA*d[5mC]*dA*dT*d[5mC]*dT*dA*eT*e[5mC]*eA*eA*eA) [compound 407651]
% Inhibition (human Factor 7 mRNA) [2]: 32%

416489 (antisense eG*eT*eG*e[5mC]*eA*dG*d[5mC]*dT*dT*dG*d[5mC]*d[5mC]*dA*dG*dG*eT*e[5mC]*e[5mC]*eT*e[5mC]) [compound 416489]
% Inhibition of human Factor 7 mRNA levels [1]: 38%

416481 (antisense eA*eG*eA*eT*eG*dA*dT*dA*dA*dT*dG*dG*dA*dT*dA*eA*eG*eA*eA*e[5mC]) [compound 416481]
% Inhibition of human Factor 7 mRNA levels [1]: 15%

407893 (antisense eT*e[5mC]*eG*eA*eA*dG*dG*d[5mC]*dA*dG*dG*dG*dA*dG*dG*e[5mC]*eA*eG*eA*eA) [compound 407893]
% Inhibition (human Factor 7 mRNA) [2]: 33%

407959 (antisense eG*e[5mC]*eA*eG*eG*dG*dA*dT*dG*dG*d[5mC]*dA*dT*d[5mC]*dG*eA*eG*eT*e[5mC]*e[5mC]) [compound 407959]
% Inhibition (human Factor 7 mRNA) [2]: 0%

422195 (antisense eA*e[5mC]*eT*dG*dA*dG*d[5mC]*dG*d[5mC]*dG*dG*dA*dA*dG*dA*dA*dG*eG*eG*eA) [compound 422195]
% Inhibition (human Factor 7 mRNA) [5]: 37%

407614 (antisense eT*eG*e[5mC]*eA*eG*dT*dA*d[5mC]*dT*dG*d[5mC]*dT*d[5mC]*dA*d[5mC]*eA*eG*e[5mC]*e[5mC]*eG) [compound 407614]
% Inhibition (human Factor 7 mRNA) [2]: 78%

416522 (antisense eG*eG*e[5mC]*eT*eG*dA*dG*dA*dA*dT*dT*dG*d[5mC]*d[5mC]*d[5mC]*eA*eG*eG*eG*e[5mC]) [compound 416522]
% Inhibition of human Factor 7 mRNA levels [1]: 25%

416539 (antisense eG*eA*e[5mC]*eA*eG*dA*dG*d[5mC]*d[5mC]*dT*dG*dA*dG*d[5mC]*dT*eT*eG*eG*e[5mC]*eA) [compound 416539]
% Inhibition of human Factor 7 mRNA levels [1]: 53%

422270 (antisense eT*eG*dA*dG*d[5mC]*dG*d[5mC]*dG*dG*dA*dA*dG*dA*dA*dG*eG*eG*eA*e[5mC]*eG) [compound 422270]
% Inhibition (human Factor 7 mRNA) [5]: 15%

416543 (antisense eT*e[5mC]*e[5mC]*eT*eG*d[5mC]*dG*dA*dG*dT*dG*dG*dG*dA*dG*eT*eT*eG*eG*eA) [compound 416543]
% Inhibition of human Factor 7 mRNA levels [1]: 0%

407923 (antisense e[5mC]*eA*eG*eG*eA*d[5mC]*dA*dG*dT*dT*d[5mC]*dG*dA*d[5mC]*dG*e[5mC]*eA*eG*e[5mC]*e[5mC]) [compound 407923]
% Inhibition (human Factor 7 mRNA) [2]: 76%

422239 (antisense eG*eA*d[5mC]*dA*dA*dT*dG*dG*dT*d[5mC]*dA*dG*dG*dG*d[5mC]*eT*eG*eG*eT*eT) [compound 422239]
% Inhibition of human Factor 7 mRNA levels [3]: 67%

416523 (antisense eT*e[5mC]*eT*e[5mC]*eG*dA*dG*dG*dG*d[5mC]*dT*dG*dA*dG*dA*eA*eT*eT*eG*e[5mC]) [compound 416523]
% Inhibition of human Factor 7 mRNA levels [1]: 18%

416563 (antisense eG*e[5mC]*e[5mC]*eT*eG*d[5mC]*dA*dT*dT*dT*d[5mC]*d[5mC]*d[5mC]*dA*dT*eT*eG*eG*e[5mC]*eA) [compound 416563]
% Inhibition of human Factor 7 mRNA levels [1]: 0%

416469 (antisense eG*e[5mC]*eA*eG*e[5mC]*d[5mC]*dA*d[5mC]*dT*d[5mC]*dG*dA*dT*dG*dT*eA*e[5mC]*eT*eG*eG) [compound 416469]
% Inhibition of human Factor 7 mRNA levels [1]: 55%

407616 (antisense eT*eG*e[5mC]*eA*eG*dG*dA*d[5mC]*dA*d[5mC]*d[5mC]*d[5mC]*d[5mC]*dG*dT*e[5mC]*eT*eG*e[5mC]*e[5mC]) [compound 407616]
% Inhibition (human Factor 7 mRNA) [2]: 64%

422135 (antisense eA*eG*e[5mC]*eA*e[5mC]*dA*d[5mC]*dA*dT*dG*dG*dA*dG*dT*d[5mC]*eA*eG*e[5mC]*eA*eT) [compound 422135]
% Inhibition (human Factor 7 mRNA) (Example 6 microwalk, nucleobases 15098 to 15122 of SEQ ID NO: 1, HepB3, lipofectin): 53%

407927 (antisense eA*eG*eG*eT*eA*dA*dG*dG*dA*dG*dG*d[5mC]*dT*d[5mC]*dA*eG*e[5mC]*eT*eG*eG) [compound 407927]
% Inhibition (human Factor 7 mRNA) [2]: 55%

416568 (antisense e[5mC]*eA*eT*eT*eG*dT*dG*d[5mC]*d[5mC]*dT*dG*dG*d[5mC]*dA*d[5mC]*eA*e[5mC]*eA*eG*eG) [compound 416568]
% Inhibition of human Factor 7 mRNA levels [1]: 14%

407921 (antisense e[5mC]*e[5mC]*eA*e[5mC]*eA*dG*dG*d[5mC]*d[5mC]*dA*dG*dG*dG*d[5mC]*dT*eG*e[5mC]*eT*eG*eG) [compound 407921]
% Inhibition (human Factor 7 mRNA) [2]: 65%

407617 (antisense eT*e[5mC]*e[5mC]*eA*e[5mC]*dA*dT*dG*dG*dA*dT*dA*dT*dT*d[5mC]*eA*eA*e[5mC]*eT*eG) [compound 407617]
% Inhibition (human Factor 7 mRNA) [2]: 67%

422223 (antisense eG*eA*eG*d[5mC]*d[5mC]*d[5mC]*dG*dA*dG*dT*dT*d[5mC]*dT*dG*d[5mC]*dA*dG*eG*eA*eG) [compound 422223]
% Inhibition of human Factor 7 mRNA levels [4]: 48%

422191 (antisense eA*eG*e[5mC]*dG*d[5mC]*dG*dG*dA*dA*dG*dA*dA*dG*dG*dG*dA*d[5mC]*eG*eG*eA) [compound 422191]
% Inhibition (human Factor 7 mRNA) [5]: 27%
